{"source": "patent US20090023714A1", "about": "“COMBINED PREPARATION OF A THIAZIDE DIURETIC AND A LOOP DIURETIC” (HEXAL AG, priority 2005, published 2009)", "key": {"healthy volunteers [1]": {"system": "healthy volunteers", "test": "Dose-response studies of natriuretic effect in healthy volunteers", "assay_type": "in vivo, human", "details": "for range of linear dose-responsiveness of natriuretic effect / dose at which the maximum natriuretic effect is reached: FIG. 1; for duration of action (time until baseline excretion is reached again): oral single dose; for dose at which the maximum natriuretic effect is reached: net Na+ excretion for the duration of action, oral", "method": "(§1) The ethically approved trial was performed on 12 healthy volunteers (28-48years in age, 6 males, 6 females), who had given their written informed consent to the study. Prior to administration of a drug, the participants underwent a clinical check-up. The participants were kept on a standard diet, receiving a defined fluid (1.5 l/day) and salt intake (6 g NaCl; 100 mmol Na^+/day) three days before and throughout the study.\nIn accordance with earlier studies (35), urine was collected before the treatment period, i.e., from 24 hrs to 12 hrs and from 12 hrs to 0 hrs prior to oral drug administration (8 a.m.). From that point of time, urine was collected following drug administration in 2 hour intervals until the 6th hour and then from the 6th to 9th hour, from the 9th to 12th hour and from the 12th to […]. An aliquot of the defined volume of the respective collection period was frozen until analyzed for Na^+, K^+, Cl^−, Ca^2+ Mg^2+ and creatinine using a “MODULAR” Analyzer (Roche Comp., Switzerland).\n(§2) All data are expressed as mean values (±SEM). The diuretic-induced “net excretion” is defined as the difference between total excretion and control excretion (“baseline”) obtained for the respective period prior to treatment. The effect of diuretic monotherapy is compared with the combined treatment using ANOVA."}, "healthy volunteers [2]": {"system": "healthy volunteers", "test": "Diuretic effects on urinary excretion of Na+, K+, Mg2+ and Ca2+ in healthy volunteers (monotherapy and combinations)", "assay_type": "in vivo, human", "details": "for Na+ excretion during the first 3 hrs, monotherapy: 10 mg TORA, 25 mg HCT, 50 mg TA; for total K+ excretion, monotherapy: usual doses, 0-24 hrs and sub-periods, FIG. 2b", "method": "as §1\nFrom that point of time, urine was collected following drug administration in 2 hour intervals until the 6th hour and then from the 6th to 9th hour, from the 9th to 12th hour and from the 12th to […]. An aliquot of the defined volume of the respective collection period was frozen until analyzed for Na^+, K^+, Cl^−, Ca^2+ Mg^2+ and creatinine using a “MODULAR” Analyzer (Roche Comp., Switzerland).\nas §2"}}, "note": "Entries after “also recorded” stand apart in the source; their conditions may differ."}
{"smiles": "Cc1cccc(Nc2ccncc2S(=O)(=O)NC(=O)NC(C)C)c1", "note": "[TORA, torasemide]", "values": [{"measurement": "range of linear dose-responsiveness of natriuretic effect", "setting": "healthy volunteers [1]", "value": "broader range of linear dose-responsiveness"}, {"measurement": "duration of action (time until baseline excretion is reached again)", "setting": "healthy volunteers [1]", "value": 6, "unit": "h"}, {"measurement": "Na+ excretion during the 6-12 hrs and 12-24 hrs periods (rebound)", "setting": "healthy volunteers [2]; 10 mg TORA monotherapy, FIG. 2a", "value": "dropped below levels prior to drug administration"}, {"measurement": "Na+ excretion during the first 3 hrs, monotherapy", "setting": "healthy volunteers [2]; FIG. 2a", "value": "by far in the highest increase of Na excretion"}, {"measurement": "K+/Na+ excretion ratio 6-24 hrs, monotherapy", "setting": "healthy volunteers [2]; after the duration of action, Na+ excretion below baseline, FIG. 2c", "value": "highest only after the duration of action of the loop diuretic"}, {"measurement": "Mg2+ excretion, monotherapy", "setting": "healthy volunteers [2]; loop diuretic versus thiazide, FIG. 3", "value": "less magnesiuretic than the thiazide"}, {"measurement": "Ca2+ excretion in relation to Na+ excretion, monotherapy", "setting": "healthy volunteers [2]; loop diuretic versus thiazide, FIG. 2d", "value": "higher for the loop diuretic than for the thiazide"}]}
{"smiles": "NS(=O)(=O)c1cc2c(cc1Cl)NCNS2(=O)=O", "note": "[HCT, hydrochlorothiazide]", "values": [{"measurement": "range of linear dose-responsiveness of natriuretic effect", "setting": "healthy volunteers [1]", "value": "narrow range of almost linear dose-responsiveness"}, {"measurement": "cumulative Na+ excretion induced by 25 mg compared with 50 mg", "setting": "healthy volunteers [1]; during 12 hrs (time until baseline excretion is reached again)", "value": "not significantly different"}, {"measurement": "dose at which the maximum natriuretic effect is reached", "setting": "healthy volunteers [1]", "value": 25, "unit": "mg"}, {"measurement": "duration of action (time until baseline excretion is reached again)", "setting": "healthy volunteers [1]", "value": 12, "unit": "h"}, {"measurement": "K+ excretion correlated with Na+ excretion (K+/Na+ ratio), 0-12 hrs", "setting": "healthy volunteers [2]; 0-12 hrs, HCT alone versus HCT with 5 mg TORA, p<0.01", "value": 0.40}, {"measurement": "K+ excretion correlated with Na+ excretion (K+/Na+ ratio), 0-24 hrs", "setting": "healthy volunteers [2]; 0-24 hrs, HCT alone versus HCT with 5 mg TORA, p<0.01", "value": 0.43}, {"measurement": "Na+ excretion during the first 3 hrs, monotherapy", "setting": "healthy volunteers [2]; FIG. 2a", "value": "higher Na^+ excretion than TA only during the first 3 hrs"}, {"measurement": "K+/Na+ excretion ratio within the first three hours, monotherapy", "setting": "healthy volunteers [2]; FIG. 2c", "value": "nearly triple of that of the loop diuretic"}, {"measurement": "total K+ excretion, monotherapy", "setting": "healthy volunteers [2]", "value": "higher than that following administration of the loop diuretic"}]}
{"smiles": "Nc1nc(N)c2nc(-c3ccccc3)c(N)nc2n1", "note": "[TA, triamterene]", "values": [{"measurement": "range of linear dose-responsiveness of natriuretic effect", "setting": "healthy volunteers [1]", "value": "narrow range of almost linear dose-responsiveness"}, {"measurement": "dose at which the maximum natriuretic effect is reached", "setting": "healthy volunteers [1]", "value": 50, "unit": "mg"}, {"measurement": "total K+ excretion, monotherapy", "setting": "healthy volunteers [2]", "value": "less K^+ loss than HCT or TORA only for the 0-3 hrs period; also recorded: not superior to the loop diuretic"}]}
